Data: US20240398738A1, “MANIPULATION OF THE RETINOIC ACID SIGNALING PATHWAY” (THE REGENTS OF THE UNIVERSITY OF CALIFORNIA, priority 2017, published 2024)
Entries after “also recorded” stand apart in the source; their conditions may differ.

Legend:
Assay type in all cases: in vivo, mouse
RGCs in WT retina = assay: MEA recording of photoswitch (QAQ, BENAQ) photosensitization in WT retina; conditions: WT retina, 3-7 days after intravitreal injection
Description: (§1) Intravitreal Injections. Before injection, mice were anesthetized with isoflurane (2%) and their pupils were dilated with tropicamide (1%) and phenylephrine (2.5%). Proparacaine (0.5%) was used as a topical analgesic. Genteal was applied under a glass coverslip to keep the cornea lubricated. An incision was made through the sclera below the ora serrata with a 30G needle and ˜1 μl of solution was injected into the vitreous with a blunt-ended 33G Hamilton syringe. After injection, the antibiotic tobramycin (0.3%) was applied to the eye. Final drug concentrations after intravitreal injection were: all-trans retinoic acid (ATRA, 100 nM), liarozole (100 μM), diethylaminobenzaldehyde (DEAB, 20 μM), citral (50 μM), BMS-493 (500 nM), and retinaldehyde (1 μM). The above values correspond to the final concentration in the eye after injecting 1 μl of drug accounting for a 5-fold dilution. An injection of PBS including 1% DMSO was used as vehicle control.
(§2) Multi Electrode Array Recordings. For extracellular recordings, a flat-mounted retina was placed ganglion cell layer down onto a 60-electrode Multi-Electrode Array (MEA 1060-2-BC, Multi-Channel Systems). After mounting the retina, photoswitches were applied for 30 min, followed by a 15 min wash. BENAQ was applied at a concentration of 100 μM and QAQ at 300 μM. A solution containing a mixture of neurotransmitter receptor blockers isolated RGCs from synaptic inputs: (in μM) 10 AP4, 40 DNQX, 30 AP5, 10 SR-95531, 50 TPMPA, 10 strychnine, and 50 tubocurarine. Extracellular spikes were high-pass filtered at 200 Hz and digitized at 20 kHz and were counted when exceeding 4 SD from the mean background voltage signal. Typically, each electrode recorded spikes from one to three individual RGCs. Principal component analysis of the spike waveforms was used for sorting spikes generated by individual cells (Offline Sorter, Plexon). Stimulation light was generated from a mercury arc lamp. Unfiltered broad spectrum light was used for BENAQ-treated retinas. Narrow band optical filters (Chroma) were used to deliver alternating intervals of 380 nm and 500 nm for stimulation of QAQ-treated as described previously (5,12). The Photoswitch Index (5) (PI) was established for individual retinas in light/darkness for treatment with BENAQ or in 380 nm/500 nm light for treatment with QAQ (11,12).
(§3) Injections. Intravitreal injections: Adult mice and rats were intravitreally injected with drugs or viruses. Before injection, animals were anesthetized with isoflurane (2%) and their pupils were dilated with tropicamide (1%) and phenylephrine (2.5%). Proparacaine (0.5%) was used as a topical analgesic. Genteal was applied under a glass coverslip to keep the cornea lubricated. An incision was made through the sclera below the ora serrata with a 30G needle. Solutions were injected into the vitreous with a blunt-ended 33G Hamilton syringe. After injection, the antibiotic tobramycin (0.3%) was applied to the eye. Final drug concentrations (after 5-fold dilution in the vitreous) were: 100 nM all-trans retinoic acid (ATRA), 100 μM liarozole (24), 20 μM diethylaminobenzaldehyde (DEAB) (28,93), 50 μM citral, 500 nM BMS 493 (85), 1 μM retinaldehyde, and vehicle comprising of 1× phosphate buffered saline (PBS) containing 1% dimethyl sulfoxide (DMSO). Intravitreal injections were performed using AAV2 serotype only. WT and rd1 mice were injected with the RAR-reporter virus or the RARDN virus, at age 1-1.5 month-old. WT and s334ter rats were injected with the RAR-reporter virus at age 3-4 month-old. Final volume of injections was 1-1.5 μL for mice and 5 μL for rats.
Multi Electrode Array Recordings. Flat-mounted retina was placed ganglion cell layer down onto a 60-electrode Multi-Electrode Array (MEA 1060-2-BC, Multi-Channel Systems). After mounting the retina was left to dark adapt for 20 minutes under constant perfusion with oxygenated saline at 34° C. 300 μM QAQ at was applied for 30 min, followed by a 5 min wash. […]

[1] = system: retinoic acid receptor β (RARβ); assay: Immunolabeling of RARβ in retinal cross-sections after intravitreal injection; conditions: 5-6 days after intravitreal ATRA 100 nM versus vehicle
Description: The same procedure was carried out for detection of RARβ in mouse retinas following injection of vehicle or ATRA. Slides were incubated with a primary rabbit anti-RARβ antibody (ab53161, Abcam) and detected using an Alexa Fluor-488 conjugated goat anti-rabbit secondary antibody (Life Technologies). […] Retinas were collected 5-6 days following injection with vehicle, ATRA, or ATRA and Liarozole.
Imaging and Analysis. […] RARE double reporter virus in rats, RARb immunolabeling and TUNEL assay were imaged using a Laser Scanning Confocal Microscope (LSM 780 NLO, Zeiss), using Zen software and default configuration for RFP, GFP, AF488 and nuclear-ID detection.

RGCs in rd1 retina [2] = assay: MEA recording of photoswitch (QAQ, BENAQ) photosensitization in rd1 retina
Description: as §1, §2
as §3, with “WT and s334ter rats were injected with the RAR-reporter virus at age 3-4 month-old. Final volume of injections was 1-1.5 μL for mice and 5 μL for rats.” left out

RGCs in rd1 retina [3] = assay: MEA recording of RGC spontaneous activity in darkness, rd1 retina
Description: as §1
Multi Electrode Array Recordings. For extracellular recordings, a flat-mounted retina was placed ganglion cell layer down onto a 60-electrode Multi-Electrode Array (MEA 1060-2-BC, Multi-Channel Systems). […] Extracellular spikes were high-pass filtered at 200 Hz and digitized at 20 kHz and were counted when exceeding 4 SD from the mean background voltage signal. Typically, each electrode recorded spikes from one to three individual RGCs. […]

RGCs in rd10 retina = assay: MEA recording of light-flash responses in partially degenerated rd10 retina
Description: as §1, §2
Data Analysis and Statistics. Unless otherwise stated, all statistical significance (p-value) calculations were performed using the two-tailed unpaired Student's t test. Results with p<0.05 were considered significant. P-values are: *<0.05, **<0.01, ***<0.001. Pairwise comparisons for non-parametric data employed the Wilcoxon Rank Sum Test or the Mann-Whitney U-test. In the case where ANOVA was employed, bootstrapping was used to account for unequal group sizes and a Tukey HSD test was employed as a post-hoc test to define which comparisons and interactions produced statistically significant changes. A modified Thompson-Tau method was employed for the detection of outliers. Non-normal data distributions were analyzed using the Kruskal-Wallis ANOVA with a Dunn's post hoc test. Sigmoidal curves were fit using OriginPro™ and the output curves for vehicle and BMS-493 are y=START+(END−START)*x^n/(k^n+x^n).
Injections. Intravitreal injections: Adult mice and rats were intravitreally injected with drugs or viruses. Before injection, animals were anesthetized with isoflurane (2%) and their pupils were dilated with tropicamide (1%) and phenylephrine (2.5%). Proparacaine (0.5%) was used as a topical analgesic. Genteal was applied under a glass coverslip to keep the cornea lubricated. An incision was made through the sclera below the ora serrata with a 30G needle. Solutions were injected into the vitreous with a blunt-ended 33G Hamilton syringe. After injection, the antibiotic tobramycin (0.3%) was applied to the eye. […]

CC1=C(/C=C/C(C)=C/C=C/C(C)=C/C(=O)O)C(C)(C)CCC1 [ATRA, all-trans retinoic acid]
QAQ photosensitization of WT retina, in words (RGCs in WT retina): Neither ATRA nor liarozole alone enabled significant QAQ photosensitization | Photoswitch Index (PI) with QAQ (RGCs in WT retina; QAQ 300 μM, mean±SEM): 0.1±0.05 | RARβ level in RGCs / ganglion cell layer [1]: significant increase in RARβ; also recorded: upregulation of the β-subunit of RAR

CC1(C)CC=C(C#Cc2ccccc2)c2cc(/C=C/c3ccc(C(=O)O)cc3)ccc21 [BMS-493]
QAQ photosensitization of rd1 retina, in words (RGCs in rd1 retina [2]; rd1 mice injected intravitreally with BMS-493): prevented QAQ photosensitization | Photoswitch Index (PI) with BENAQ (RGCs in rd1 retina [2]; rd1 retina treated with BMS-493 (intravitreal, 3-7 days), BENAQ, white light/darkness, mean±SEM): 0.35±0.05 | Photoswitch Index (PI) with QAQ (RGCs in rd1 retina [2]; rd1 retina treated with BMS-493 (intravitreal, 3-7 days), QAQ 300 μM, 380/500 nm, mean±SEM): 0.15±0.06 | spontaneous firing of rd1 RGCs (mean Firing Rate) (RGCs in rd1 retina [3]; rd1, 3-7 days after a single intravitreal injection of BMS-493, control 5.13±0.74 Hz): 2.67±0.33 Hz | spontaneous firing rates versus controls, in words (RGCs in rd1 retina [3]; rd1 retina, BMS-493 0.5 μM 3-7 days before, or AAV2-RARDN injected at P30, recorded at P90): significantly lower | I50, midpoint of the intensity vs. response curve (RGCs in rd10 retina; 6-week-old rd10, 3-7 days after intravitreal injection, vehicle eye 1.73 μW): 0.35 μW | Max, peak response (ratio of firing rate in the light:dark) (RGCs in rd10 retina; 6-week-old rd10, 3-7 days after intravitreal injection, vehicle eye 3.68): 4.77 | RGC response to a flash of dim light, in words (RGCs in rd10 retina; rd10, 50 ms flash, 0.2 μW, vehicle-treated retinas showed no response): shows a response in BMS-493 injected animals but not vehicle injected mice; also recorded: transient increase in RGC firing in response to a brief flash (50 ms) of dim light | background (spontaneous) firing in darkness, in words (RGCs in rd10 retina; rd10, BMS-493-injected eye): reduced spontaneous activity; also recorded: decrease in the background firing rate in darkness | response threshold (light intensity) (RGCs in rd10 retina; rd10, BMS-493-injected eye, vehicle-injected 0.85 μW): 0.2 μW | light response compared between drug-injected and vehicle-injected eye of each animal, in words (RGCs in rd10 retina; rd10, n=5, paired): significantly increased light response in every subject; also recorded: observed in all 5 animals tested; also recorded: enhanced the light response in all mice tested | shift of the intensity-response curve, in words (RGCs in rd10 retina; rd10, range of light intensities, versus vehicle): leftward and upward shift of fitted sigmoidal curves; also recorded: increase in sensitivity and peak response to light
